In US9029373B2, “Kinase inhibitors” (Chiesi Farmaceutici S.p.A., priority 2011, dated 2015):
Blank lines part the entries; values can stand above or below the compound they belong to.

Legend:
[1] = molecular target: T1, p38alpha (Homo sapiens, UniProt Q16539); test: P38alpha enzyme inhibition assay (Alphascreen kinase activity assay); type: biochemical; details: 100 pM p38alpha, 250 μM ATP, 2 hours pre-incubation at 25° C., ATF-2 fusion protein substrate; read-out: p38α inhibition (IC50 values)
T1 construct: purchased Invitrogen PV3304
T1 sequence (Q16539 whole entry, the tested form may be a part): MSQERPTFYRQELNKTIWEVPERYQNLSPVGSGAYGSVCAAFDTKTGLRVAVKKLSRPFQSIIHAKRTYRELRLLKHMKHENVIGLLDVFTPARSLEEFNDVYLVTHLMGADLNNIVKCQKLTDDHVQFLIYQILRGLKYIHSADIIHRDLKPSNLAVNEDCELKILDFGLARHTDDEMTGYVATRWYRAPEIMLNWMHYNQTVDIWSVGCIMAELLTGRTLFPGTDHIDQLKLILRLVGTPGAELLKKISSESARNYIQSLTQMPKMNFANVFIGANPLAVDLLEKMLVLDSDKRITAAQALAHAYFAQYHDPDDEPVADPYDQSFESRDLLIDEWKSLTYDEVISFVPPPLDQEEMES
Procedure: P38alpha Enzyme Inhibition Assay.
The inhibitory activity of compounds was determined using an Alphascreen® (Perkin Elmer) based kinase activity assay. Kinase reactions consisted of 25 mM HEPES pH 7.5, 10 mM MgCl2, 100 μM Na3VO4, 2 mM DTT, 0.05 mg/ml Tween 20, 100 pM p38alpha (Invitrogen, PV3304), 1% DMSO and 0.3 μg/ml ATF-2 fusion protein (New England Biolabs, 9224). Compounds were incubated under these conditions for 2 hours, at 25° C., prior to the initiation of the kinase activity by the addition of the 250 μM ATP. Reaction volumes were 20 uL. After 1 hr at 25° C. reactions were stopped by the adding 10 uL of 25 mM HEPES pH 7.5 containing 62.5 mM EDTA, 0.05% Triton X-100, 10% BSA and 0.83 ng/uL anti-phospho-ATF2 antibody (Abeam, ab28812). Detection was performed by measuring luminescence following the addition of Alphascreen Donor beads (Perkin Elmer 6765300) and Protein A Alphascreen Acceptor beads (Perkin Elmer 6760137), both at a final concentration of 20 ug/ml. IC50 values were determined from concentration-response curves.

[2] = test system: LPS-stimulated PBMC TNFα release; test: LPS-stimulated PBMC TNFα release assay; type: cell-based; details: human PBMCs, LPS 10 ng/ml, 18 h, TNFα by ELISA, at least three separate experiments, read-out: p38α inhibition (IC50 values), inhibition of TNFα release
Procedure: LPS-Stimulated PBMC TNFα Release Assay.
Peripheral Blood Mononuclear Cells (PBMCs) were isolated from healthy human volunteer blood using a standard density gradient centrifugation technique. Citrated blood was placed onto Histopaque™ and centrifuged. The PBMCs were removed from the density gradient interface and washed in phosphate buffered saline (PBS). The PBMCs were suspended in RPMI 1640 medium (without serum), dispensed into a 96-well plate and incubated at 37° C. for 3 h in a humidified incubator. After incubation, the medium was replaced (with medium containing 1% foetal bovine serum), and the plate incubated at 37° C., for 1 h, in the presence of test compound or the appropriate vehicle. LPS (10 ng/ml), or an appropriate vehicle control, was then added to the cells, and the plate returned to the incubator for 18 h. Cell-free supernatants were removed and assayed for TNFα levels using an ELISA kit from R&D Systems.
A dose response curve to each test compound was performed and the effect of compound in each experiment was expressed as a percentage inhibition of the control TNFα release. Dose response curves were plotted and compound potency (IC50) was determined. Compounds were tested in at least three separate experiments.

Compound: CC(C)c1nnc2ccc(O[C@H]3CC[C@H](NC(=O)Nc4nc(C(C)(C)C)no4)c4ccccc43)cn12 [Example 8, 1-(3-tert-Butyl-[1,2,4]oxadiazol-5-yl)-3-[(1S,4S)-4-(3-isopropyl-[1,2,4]triazolo[4,3-a]pyridin-6-yloxy)-1,2,3,4-tetrahydro-naphthalen-1-yl]-urea]
- IC50 [1]: < 10 nM
- IC50 [2]: < 10 nM

Compound: CC(C)c1nnc2ccc(O[C@H]3CC[C@H](NC(=O)Nc4ccc(Cl)c(C(F)(F)F)c4)c4ccccc43)cn12 [Example 7, 1-(4-Chloro-3-trifluoromethyl-phenyl)-3-[(1S,4S)-4-(3-isopropyl-[1,2,4]triazolo[4,3-a]pyridin-6-yloxy)-1,2,3,4-tetrahydro-naphthalen-1-yl]-urea]
- IC50 [1]: < 10 nM
- IC50 [2]: < 10 nM

Compound: CC(C)c1nnc2ccc(O[C@H]3CC[C@H](NC(=O)Nc4nnc(C(C)(C)C)o4)c4ccccc43)cn12 [Example 5, 1-(5-tert-Butyl-[1,3,4]oxadiazol-2-yl)-3-[(1S,4S)-4-(3-isopropyl-[1,2,4]triazolo[4,3-a]pyridin-6-yloxy)-1,2,3,4-tetrahydro-naphthalen-1-yl]-urea]
- IC50 [1]: < 10 nM
- IC50 [2]: 10 to 100 nM

Compound: CC(C)(C)c1cc(NC(=O)N[C@H]2CC[C@@H](Oc3ccc4nnc(-c5ccccc5Cl)n4c3)c3ccccc32)n(CCO)n1 [Example 31, 1-[5-tert-Butyl-2-(2-hydroxy-ethyl)-2H-pyrazol-3-yl]-3-{(1S,4R)-4-[3-(2-chloro-phenyl)-[1,2,4]triazolo[4,3-a]pyridin-6-yloxy]-1,2,3,4-tetrahydro-naphthalen-1-yl}-urea]
- IC50 [1]: < 10 nM
- IC50 [2]: < 10 nM

Compound: CC(C)c1nnc2ccc(O[C@@H]3CC[C@H](NC(=O)Nc4cc(C(C)(C)C)nn4-c4cccc(OCCO)c4)c4ccccc43)cn12 [Example 4, 1-{5-tert-Butyl-2-[3-(2-hydroxy-ethoxy)-phenyl]-2H-pyrazol-3-yl}-3-[(1S,4R)-4-(3-isopropyl-[1,2,4]triazolo[4,3-a]pyridin-6-yloxy)-1,2,3,4-tetrahydro-naphthalen-1-yl]-urea]
- IC50 [1]: < 10 nM
- IC50 [2]: < 10 nM

More lines, main results first:

- IC50 [1]: < 10 nM
Compound: CC(C)c1nnc2ccc(O[C@@H]3CC[C@H](NC(=O)Nc4cc(C(C)(C)C)nn4C)c4cc(F)ccc43)cn12 [Example 19, 1-(5-tert-Butyl-2-methyl-2H-pyrazol-3-yl)-3-[(1S,4R)-7-fluoro-4-(3-isopropyl-[1,2,4]triazolo[4,3-a]pyridin-6-yloxy)-1,2,3,4-tetrahydro-naphthalen-1-yl]-urea]
- IC50 [2]: 10 to 100 nM

- IC50 [1]: < 10 nM
Compound: CC(C)c1nnc2ccc(O[C@H]3CC[C@H](NC(=O)Nc4cnn(C(C)(C)C)c4)c4ccccc43)cn12 [Example 9, 1-(1-tert-Butyl-1H-pyrazol-4-yl)-3-[(1S,4S)-4-(3-isopropyl-[1,2,4]triazolo[4,3-a]pyridin-6-yloxy)-1,2,3,4-tetrahydro-naphthalen-1-yl]-urea]
- IC50 [2]: < 10 nM

- IC50 [1]: < 10 nM
Compound: CC(C)c1nnc2ccc(O[C@@H]3CC[C@H](NC(=O)Nc4cc(C(C)(C)C)nn4-c4cccc(N5CCOCC5)c4)c4ccccc43)cn12 [Example 23, 1-[5-tert-Butyl-2-(3-morpholin-4-yl-phenyl)-2H-pyrazol-3-yl]-3-[(1S,4R)-4-(3-isopropyl-[1,2,4]triazolo[4,3-a]pyridin-6-yloxy)-1,2,3,4-tetrahydro-naphthalen-1-yl]-urea]
- IC50 [2]: < 10 nM

- IC50 [1]: < 10 nM
Compound: CC(C)c1nnc2ccc(O[C@@H]3CC[C@H](NC(=O)Nc4cc(C(C)(C)C)nn4CCN4CCOCC4)c4ccccc43)cn12 [Example 18, 1-[5-tert-Butyl-2-(2-morpholin-4-yl-ethyl)-2H-pyrazol-3-yl]-3-[(1S,4R)-4-(3-isopropyl[1,2,4]triazolo[4,3-a]pyridin-6-yloxy)-1,2,3,4-tetrahydro-naphthalen-1-yl]-urea]
- IC50 [2]: 10 to 100 nM
